From patent publication US20100204203A1, “Chemical Compounds 637: Pyridopyrimidinediones as PDE4 Inhibitors” (priority 2007, published 2010)

Biological target: recombinant Human Phosphodiesterase B2 (PDE4B2) (Homo sapiens, UniProt Q07343)
Assay: Human Phosphodiesterase B2 Radiometric Assay (yttrium silicate SPA beads, [3H]cyclic AMP)
Format: biochemical
Details: recombinant human PDE4B2, radiometric SPA assay, 8 nM [3H]cyclic AMP; read-out: PDE4B2 pIC50 (converted)
How it was run: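 Compounds were preincubated 30 min at 30 °C with 0.1 mg/mL PDE4B2 in 50 mM HEPES pH 7.5, 8.3 mM MgCl2, 1.7 mM EGTA, 0.01% Brij 35. Then 8 nM [3H]cAMP was added for 20 min, stopped with yttrium silicate SPA beads plus 18 mM ZnSO4 capturing product 5′AMP; pIC50 by curve fitting.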

Sequence of recombinant Human Phosphodiesterase B2 (PDE4B2) (Q07343 1-564 isoform Q07343-2): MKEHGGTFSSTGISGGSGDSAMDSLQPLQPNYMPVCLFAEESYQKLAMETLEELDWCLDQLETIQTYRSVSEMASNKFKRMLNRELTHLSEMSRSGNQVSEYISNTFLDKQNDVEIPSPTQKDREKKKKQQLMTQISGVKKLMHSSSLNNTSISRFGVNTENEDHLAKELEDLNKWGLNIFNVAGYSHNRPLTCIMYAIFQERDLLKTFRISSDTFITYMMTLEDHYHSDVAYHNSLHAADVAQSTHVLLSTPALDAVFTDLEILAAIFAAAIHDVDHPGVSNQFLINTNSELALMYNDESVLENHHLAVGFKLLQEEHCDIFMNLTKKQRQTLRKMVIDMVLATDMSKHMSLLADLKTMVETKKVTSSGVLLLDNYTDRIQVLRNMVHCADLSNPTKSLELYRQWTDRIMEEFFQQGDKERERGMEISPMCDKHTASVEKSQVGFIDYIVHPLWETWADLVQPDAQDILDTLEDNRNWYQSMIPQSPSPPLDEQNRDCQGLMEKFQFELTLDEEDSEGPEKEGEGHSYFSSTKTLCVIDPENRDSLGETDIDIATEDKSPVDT

IC50 [nM]	Compound
0.398	CC(C)[C@H](N)C(=O)N[C@H]1CC[C@@H](n2c(=O)c3cc(F)cnc3n(-c3cccc(-c4ccc(CN5CCCN(C)CC5)cc4)c3)c2=O)CC1 [Example 314, N-{cis-4-[6-fluoro-1-{4′-[(4-methyl-1,4-diazepan-1-yl)methyl]biphenyl-3-yl}-2,4-dioxo-1,4-dihydropyrido[2,3-d]pyrimidin-3(2H)-yl]cyclohexyl}-L-valinamide]
0.2	O=C(N[C@H]1CC[C@@H](n2c(=O)c3cc(F)cnc3n(-c3cccc(-c4cccc(CN5CCCCC5)c4)c3)c2=O)CC1)c1cn2cc(F)ccc2n1 [Example 14, 6-fluoro-N-{cis-4-[6-fluoro-2,4-dioxo-1-[3′-(piperidin-1-ylmethyl)biphenyl-3-yl]-1,4-dihydropyrido[2,3-d]pyrimidin-3(2H)-yl]cyclohexyl}imidazo[1,2-a]pyridine-2-carboxamide.]
0.0398	O=c1c2cc(F)cnc2n(-c2cccc(-c3ccc(O)cc3CN3CCOCC3)c2)c(=O)n1[C@H]1CC[C@@H](NCc2cc3ccccc3o2)CC1 [Example 279, 3-{cis-4-[(1-benzofuran-2-ylmethyl)amino]cyclohexyl}-6-fluoro-1-[4′-hydroxy-2′-(morpholin-4-ylmethyl)biphenyl-3-yl]pyrido[2,3-d]pyrimidine-2,4(1H,3H)-dione]
0.501	Cc1nc2ccccn2c1CN[C@H]1CC[C@@H](n2c(=O)c3cc(F)cnc3n(-c3cccc(-c4ccc(O)cc4CN4CCOCC4)c3)c2=O)CC1 [Example 370, 6-fluoro-1-[4′-hydroxy-2′-(morpholin-4-ylmethyl)biphenyl-3-yl]-3-(cis-4-{[(2-methylimidazo[1,2-a]pyridin-3-yl)methyl]amino}cyclohexyl)pyrido[2,3-d]pyrimidine-2,4(1H,3H)-dione]
0.1	Cc1nc(C(=O)N[C@H]2CC[C@@H](n3c(=O)c4cc(F)cnc4n(-c4cccc(-c5ccc(CN6CCCN(C)CC6)cc5)c4)c3=O)CC2)cs1 [Example 309, N-{cis-4-[6-fluoro-1-{4′-[(4-methyl-1,4-diazepan-1-yl)methyl]biphenyl-3-yl}-2,4-dioxo-1,4-dihydropyrido[2,3-d]pyrimidin-3(2H)-yl]cyclohexyl}-2-methyl-1,3-thiazole-4-carboxamide]
0.631	O=C(NCc1ccccc1)c1cccc(-n2c(=O)n([C@H]3CC[C@@H](NC(=O)c4cn5cc(F)ccc5n4)CC3)c(=O)c3cc(F)cnc32)c1 [Example 92, N-{cis-4-[1-{3-[(benzylamino)carbonyl]phenyl}-6-fluoro-2,4-dioxo-1,4-dihydropyrido[2,3-d]pyrimidin-3(2H)-yl]cyclohexyl}-6-fluoroimidazo[1,2-a]pyridine-2-carboxamide]
2.51	O=c1c2cc(F)cnc2n(-c2cccc(-c3ccc(O)cc3CN3CCC[C@H]3CO)c2)c(=O)n1[C@H]1CC[C@@H](NCc2cn3cc(F)ccc3n2)CC1 [Example 330, 6-fluoro-3-(cis-4-{[(6-fluoroimidazo[1,2-a]pyridin-2-yl)methyl]amino}cyclohexyl)-1-(4′-hydroxy-2′-{[(2S)-2-(hydroxymethyl)pyrrolidin-1-yl]methyl}biphenyl-3-yl)pyrido[2,3-d]pyrimidine-2,4(1H,3H)-dione]
0.2	CN1CCCN(Cc2ccc(-c3cccc(-n4c(=O)n([C@H]5CC[C@@H](NC(=O)[C@@H](N)Cc6ccccc6)CC5)c(=O)c5cc(F)cnc54)c3)cc2)CC1 [Example 312, N-{cis-4-[6-fluoro-1-{4′-[(4-methyl-1,4-diazepan-1-yl)methyl]biphenyl-3-yl}-2,4-dioxo-1,4-dihydropyrido[2,3-d]pyrimidin-3(2H)-yl]cyclohexyl}-L-phenylalaninamide]
0.00794	Cc1cc(C(=O)N[C@H]2CC[C@@H](n3c(=O)c4cc(F)cnc4n(-c4cccc(-c5ccc(CN6CCOCC6)cc5)c4)c3=O)CC2)nn1C [Example 108, N-{cis-4-[6-fluoro-1-[4′-(morpholin-4-ylmethyl)biphenyl-3-yl]-2,4-dioxo-1,4-dihydropyrido[2,3-d]pyrimidin-3(2H)-yl]cyclohexyl}-1,5-dimethyl-1H-pyrazole-3-carboxamide]
0.1	CN(Cc1ccc(-c2cccc(-n3c(=O)n([C@H]4CC[C@@H](NC(=O)c5cn6cc(F)ccc6n5)CC4)c(=O)c4cc(F)cnc43)c2)cc1)C(C)(C)C [Example 57, N-{cis-4-[1-(4′-{[tert-butyl(methyl)amino]methyl}biphenyl-3-yl)-6-fluoro-2,4-dioxo-1,4-dihydropyrido[2,3-d]pyrimidin-3(2H)-yl]cyclohexyl}-6-fluoroimidazo[1,2-a]pyridine-2-carboxamide]
0.0158	Cc1cccc(C(=O)N[C@H]2CC[C@@H](n3c(=O)c4cc(F)cnc4n(-c4cccc(-c5ccc(CN6CCC(N7CCCCC7)CC6)cc5)c4)c3=O)CC2)n1 [Example 299, N-{cis-4-[1-[4′-(1,4′-bipiperidin-1′-ylmethyl)biphenyl-3-yl]-6-fluoro-2,4-dioxo-1,4-dihydropyrido[2,3-d]pyrimidin-3(2H)-yl]cyclohexyl}-6-methylpyridine-2-carboxamide]
0.0794	O=C(N[C@H]1CC[C@@H](n2c(=O)c3cc(F)cnc3n(-c3cccc(-c4ccccc4CN4CCOCC4)c3)c2=O)CC1)c1ccccc1O [Example 63, N-{cis-4-[6-fluoro-1-[2′-(morpholin-4-ylmethyl)biphenyl-3-yl]-2,4-dioxo-1,4-dihydropyrido[2,3-d]pyrimidin-3(2H)-yl]cyclohexyl}-2-hydroxybenzamide]
0.0251	CC(C)(C)OC(=O)N1CCN(CC(=O)N[C@H]2CC[C@@H](n3c(=O)c4cc(F)cnc4n(-c4cccc(-c5ccccc5)c4)c3=O)CC2)CC1 [Example 105, tert-butyl 4-(2-{[cis-4-(1-biphenyl-3-yl-6-fluoro-2,4-dioxo-1,4-dihydropyrido[2,3-d]pyrimidin-3(2H)-yl)cyclohexyl]amino}-2-oxoethyl)piperazine-1-carboxylate]
0.0794	CNCCNCc1ccc(-c2cccc(-n3c(=O)n([C@H]4CC[C@@H](NC(=O)c5cn6cc(F)ccc6n5)CC4)c(=O)c4cc(F)cnc43)c2)cc1 [Example 64, 6-fluoro-N-{cis-4-[6-fluoro-1-[4′-({[2-(methylamino)ethyl]amino}methyl)biphenyl-3-yl]-2,4-dioxo-1,4-dihydropyrido[2,3-a]pyrimidin-3(2H)-yl]cyclohexyl}imidazo[1,2-a]pyridine-2-carboxamide]
0.00398	CN(C)Cc1cc(F)ccc1-c1cccc(-n2c(=O)n([C@H]3CC[C@@H](NC(=O)c4cn5cc(F)ccc5n4)CC3)c(=O)c3cc(F)cnc32)c1 [Example 273, N-{cis-4-[1-{2′-[(Dimethylamino)methyl]-4′-fluorobiphenyl-3-yl}-6-fluoro-2,4-dioxo-1,4-dihydropyrido[2,3-d]pyrimidin-3(2H)-yl]cyclohexyl}-6-fluoroimidazo[1,2-a]pyridine-2-carboxamide]
0.251	O=c1c2cc(F)cnc2n(-c2cccc(-c3ccc(CN4CCCOCC4)cc3)c2)c(=O)n1[C@H]1CC[C@@H](NCc2cn3cc(F)ccc3n2)CC1 [Example 338, 6-fluoro-3-(cis-4-{[(6-fluoroimidazo[1,2-a]pyridin-2-yl)methyl]amino}cyclohexyl)-1-[4′-(1,4-oxazepan-4-ylmethyl)biphenyl-3-yl]pyrido[2,3-d]pyrimidine-2,4(1H,3H)-dione]
